Assays:
[1] = tested on: primary human tubular epithelial cell (HTEC); experiment: SA β Gal staining at pH6 in primary tubular epithelial cultures as a measure of senescence, with or without H2O2; format: cell-based; details: 10 ng/ml tacrolimus (FK); cells challenged with oxidant H2O2 (75 μM); FIG. 3
Protocol: HTEC culture. Primary HTEC cultures were grown at 37° C. 5% CO2 in DMEM/Glutamax-1/+ pyridoxine medium (Life technologies) plus […] ml^−1 Penstrep. Cells were stained for SA β Gal activity as described in Joosten et al 2003.
Building upon the rodent observations, the inventor has established a primary human tubular epithelial cell (HTEC) in vitro system to model and evaluate premature human renal senescence. […] This is shown in FIG. 3, which illustrates SA β Gal staining at pH6 in primary tubular epithelial cultures as a measure of senescence.
Cultures were grown ±100 ng/ml cyclosporin (cyc) or 10 ng/ml tacrolimus (FK) and evaluated with or without oxidising 75 μM H2O2 treatment.
This has profound implications for transplant outcome and current clinical practice.

[2] = patients treated after cadaveric renal transplantation; result not always reproducible; cited from earlier work

Row | Compound | effect on oxidant stress, judged by SA β Gal staining at pH6 [1] | 1 and 4 year graft survival rate [2] | first acute rejection episodes [2]
1 | C=CC[C@@H]1/C=C(\C)C[C@H](C)C[C@H](OC)[C@H]2O[C@@](O)(C(=O)C(=O)N3CCCC[C@H]3C(=O)O[C@H](/C(C)=C/[C@@H]3CC[C@@H](O)[C@H](OC)C3)[C@H](C)[C@@H](O)CC1=O)[C@H](C)C[C@@H]2OC [tacrolimus] | protect against the effects of oxidant stress | – | –
2 | superoxide dismutase | – | significantly improved | reduction
